# Laboratory results from patent publication US20230382925A1, “MODULATORS OF CYSTIC FIBROSIS TRANSMEMBRANE CONDUCTANCE REGULATOR” (VERTEX PHARMACEUTICALS INCORPORATED, priority 2020, published 2023).
# pEC50: −log10 of the molar value. Read-outs that look alike come from different tables or passages of the source.
# Biological target: CFTR (Homo sapiens, UniProt P13569)
# Assay: Membrane Potential Dye, Enteroid Assay B
# Type: cell-based
# Method in brief: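 Activity given as % of a triple-combination reference (1 μM and 3 μM correctors, 300 nM acute potentiator). Enteroids were preincubated 18-24 h with compound; chloride efflux then measured 15 min by methyl oxonol fluorescence after forskolin/IBMX/Compound III stimulation in chloride-free buffer containing CaCCinh-A01 and Chicago Sky Blue.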
# [1] = Table 10, read-out: Ent. B EC50
# CFTR, sequence (P13569 with tags, fused parts or gaps DEL508-508): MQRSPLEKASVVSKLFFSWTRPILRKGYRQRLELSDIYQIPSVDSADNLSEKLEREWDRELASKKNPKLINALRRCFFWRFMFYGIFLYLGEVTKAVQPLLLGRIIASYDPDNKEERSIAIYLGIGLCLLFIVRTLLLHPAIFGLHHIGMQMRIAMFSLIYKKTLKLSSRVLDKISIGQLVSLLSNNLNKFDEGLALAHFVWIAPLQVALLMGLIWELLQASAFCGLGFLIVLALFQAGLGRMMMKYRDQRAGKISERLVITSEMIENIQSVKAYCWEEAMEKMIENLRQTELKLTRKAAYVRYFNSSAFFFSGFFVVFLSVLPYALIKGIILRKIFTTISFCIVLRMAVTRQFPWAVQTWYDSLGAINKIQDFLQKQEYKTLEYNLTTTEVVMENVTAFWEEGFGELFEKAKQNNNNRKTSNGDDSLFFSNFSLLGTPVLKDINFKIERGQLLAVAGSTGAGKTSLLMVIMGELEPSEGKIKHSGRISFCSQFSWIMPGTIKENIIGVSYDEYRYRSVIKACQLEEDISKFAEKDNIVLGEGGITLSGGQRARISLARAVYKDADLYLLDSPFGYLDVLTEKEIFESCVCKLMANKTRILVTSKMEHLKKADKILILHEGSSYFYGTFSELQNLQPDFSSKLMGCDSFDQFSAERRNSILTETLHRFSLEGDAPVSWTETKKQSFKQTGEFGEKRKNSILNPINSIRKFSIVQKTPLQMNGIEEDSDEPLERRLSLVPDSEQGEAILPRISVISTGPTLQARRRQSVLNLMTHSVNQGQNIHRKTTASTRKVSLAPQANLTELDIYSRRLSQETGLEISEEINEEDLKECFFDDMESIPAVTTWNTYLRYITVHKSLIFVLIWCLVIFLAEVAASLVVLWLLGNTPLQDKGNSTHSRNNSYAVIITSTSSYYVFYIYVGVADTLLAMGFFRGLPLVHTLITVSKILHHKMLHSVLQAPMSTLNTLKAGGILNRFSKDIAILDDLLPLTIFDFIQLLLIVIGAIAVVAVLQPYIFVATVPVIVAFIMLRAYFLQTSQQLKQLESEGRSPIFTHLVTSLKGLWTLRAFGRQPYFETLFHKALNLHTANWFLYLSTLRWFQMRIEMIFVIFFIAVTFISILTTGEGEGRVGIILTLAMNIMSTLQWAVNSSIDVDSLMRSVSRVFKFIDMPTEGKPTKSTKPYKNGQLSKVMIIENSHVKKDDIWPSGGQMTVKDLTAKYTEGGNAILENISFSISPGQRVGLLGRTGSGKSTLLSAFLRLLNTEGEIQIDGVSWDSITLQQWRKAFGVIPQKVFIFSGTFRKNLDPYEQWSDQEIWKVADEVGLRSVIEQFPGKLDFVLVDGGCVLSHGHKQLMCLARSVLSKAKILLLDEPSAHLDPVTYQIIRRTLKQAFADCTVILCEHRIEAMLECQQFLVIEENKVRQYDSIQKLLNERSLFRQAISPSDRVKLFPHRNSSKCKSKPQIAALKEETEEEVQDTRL
Structure (SMILES),Ent. B Max Activity (%) (Table 9),"pEC50 (Table 9, read-out: Ent. B EC50)",also measured
"COCCN(C)[C@H]1C[C@]2(C1)C[C@H](N1C(=O)c3cccc(c3)S(=O)(=O)Nc3nc(cc(-c4c(C)cccc4C)n3)OC[C@H]1CC1(C(F)(F)F)CC1)C2 (stereo partly drawn) [Compound 82, (R)-1^6-(2,6-Dimethylphenyl)-6-((2S,4s,6S)-6-((2-methoxyethyl)(methyl)amino)spiro[3.3]heptan-2-yl)-7-((1-(trifluoromethyl)cyclopropyl)methyl)-9-oxa-3-thia-2,6-diaza-1(2,4)-pyrimidina-4(1,3)-benzenacyclononaphan-5-one 3,3-dioxide]",+++ (+++ is >60%),> 6.00,
"COCCN(C)[C@H]1C[C@@]2(C1)C[C@H](N1C(=O)c3cccc(c3)S(=O)(=O)Nc3nc(cc(-c4c(C)cccc4C)n3)OC[C@H]1CC1(C(F)(F)F)CC1)C2 (stereo partly drawn) [Compound 83, (R)-16-(2,6-Dimethylphenyl)-6-((2R,4r,6R)-6-((2-methoxyethyl)(methyl)amino)spiro[3.3]heptan-2-yl)-7-((1-(trifluoromethyl)cyclopropyl)methyl)-9-oxa-3-thia-2,6-diaza-1(2,4)-pyrimidina-4(1,3)-benzenacyclononaphan-5-one 3,3-dioxide]",+++ (+++ is >60%),> 6.00,
"CC(=O)N[C@H]1C[C@@]2(C1)C[C@H](N1C(=O)c3cccc(c3)S(=O)(=O)Nc3nc(cc(-c4c(C)cccc4C)n3)OC[C@H]1CC1(C(F)(F)F)CC1)C2 (stereo partly drawn) [Compound 85, N-((2R,4r,6R)-6-((R)-1^6-(2,6-Dimethylphenyl)-3,3-dioxido-5-oxo-7-((1-(trifluoromethyl)cyclopropyl)methyl)-9-oxa-3-thia-2,6-diaza-1(2,4)-pyrimidina-4(1,3)-benzenacyclononaphane-6-yl)spiro[3.3]heptan-2-yl)acetamide]",+++ (+++ is >60%),> 6.00,
"COC(=O)NC1CC2(C1)CC(N1C(=O)c3cccc(c3)S(=O)(=O)Nc3nc(cc(-c4c(C)cccc4C)n3)OC[C@H]1CC(C)(C)C)C2 (stereo partly drawn) [Compound 88, Methyl ((2S,4s,6S)-6-((R)-1^6-(2,6-dimethylphenyl)-7-neopentyl-3,3-dioxido-5-oxo-9-oxa-3-thia-2,6-diaza-1(2,4)-pyrimidina-4(1,3)-benzenacyclononaphane-6-yl)spiro[3.3]heptan-2-yl)carbamate]",+++ (+++ is >60%),> 6.00,
"Cc1cccc(C)c1-c1cc2nc(n1)NS(=O)(=O)c1cccc(c1)C(=O)N(C1CC3(CC(NC(=O)OC(C)C)C3)C1)[C@H](CC(C)(C)C)CO2 (stereo partly drawn) [Compound 92, Isopropyl ((2S,4s,6S)-6-((R)-1^6-(2,6-dimethylphenyl)-7-neopentyl-3,3-dioxido-5-oxo-9-oxa-3-thia-2,6-diaza-1(2,4)-pyrimidina-4(1,3)-benzenacyclononaphane-6-yl)spiro[3.3]heptan-2-yl)carbamate]",+++ (+++ is >60%),> 6.00,
"COC(=O)N(C)C1CC2(C1)CC(N1C(=O)c3cccc(c3)S(=O)(=O)Nc3nc(cc(-c4c(C)cccc4C)n3)OC[C@H]1CC(C)(C)C)C2 (stereo partly drawn) [Compound 94, Methyl ((2R,4r,6R)-6-((R)-1^6-(2,6-dimethylphenyl)-7-neopentyl-3,3-dioxido-5-oxo-9-oxa-3-thia-2,6-diaza-1(2,4)-pyrimidina-4(1,3)-benzenacyclononaphane-6-yl)spiro[3.3]heptan-2-yl)(methyl)carbamate]",,,Ent. B Max Activity (%) (Table 10): ++ (++ is 30-60%); pEC50 [1]: > 6.00
"Cc1cccc(C)c1-c1cc2nc(n1)NS(=O)(=O)c1cccc(c1)C(=O)N(c1cnn(C)c1)[C@H](CC(C)C)CO2 [Compound 97, (11R)-6-(2,6-Dimethylphenyl)-11-isobutyl-12-(1-methylpyrazol-4-yl)-2,2-dioxo-9-oxa-2λ^6-thia-3,5,12,19-tetrazatricyclo[12.3.1.14,8]nonadeca-1(18),4(19),5,7,14,16-hexaen-13-one]",,,Ent. B Max Activity (%) (Table 10): +++ (+++ is >60%); pEC50 [1]: > 6.00
"Cc1cccc(C)c1-c1cc2nc(n1)NS(=O)(=O)c1cccc(c1)C(=O)N(C1CC3(C1)CN(C(=O)OC(C)C)C3)[C@H](CC(C)C)CO2 [Compound 102, Isopropyl 6-[(11R)-6-(2,6-dimethylphenyl)-11-isobutyl-2,2,13-trioxo-9-oxa-2λ^6-thia-3,5,12,19-tetrazatricyclo[12.3.1.14,8]nonadeca-1(18),4(19),5,7,14,16-hexaen-12-yl]-2-azaspiro[3.3]heptane-2-carboxylate]",,,Ent. B Max Activity (%): +++ (+++ is >60%); pEC50 (read-out: Ent. B EC50): > 6.00
"Cc1cccc(C)c1-c1cc2nc(n1)NS(=O)(=O)c1cccc(c1)C(=O)N(C1CC3(C1)CN(C(C)C)C3)[C@H](CC(C)C)CO2 [Compound 103, (11R)-6-(2,6-Dimethylphenyl)-11-isobutyl-12-(2-isopropyl-2-azaspiro[3.3]heptan-6-yl)-2,2-dioxo-9-oxa-2λ^6-thia-3,5,12,19-tetrazatricyclo[12.3.1.14,8]nonadeca-1(18),4(19),5,7,14,16-hexaen-13-one]",,,Ent. B Max Activity (%): +++ (+++ is >60%); pEC50 (read-out: Ent. B EC50): > 6.00
"COCCN1CC2(CC(N3C(=O)c4cccc(c4)S(=O)(=O)Nc4nc(cc(-c5c(C)cccc5C)n4)OC[C@H]3CC(C)C)C2)C1 [Compound 104, (11R)-6-(2,6-Dimethylphenyl)-11-isobutyl-12-[2-(2-methoxyethyl)-2-azaspiro[3.3]heptan-6-yl]-2,2-dioxo-9-oxa-2λ^6-thia-3,5,12,19-tetrazatricyclo[12.3.1.14,8]nonadeca-1(18),4(19),5,7,14,16-hexaen-13-one]",+++ (+++ is >60%),,
"Cc1cccc(C)c1-c1cc2nc(n1)NS(=O)(=O)c1cccc(c1)C(=O)N(C1CN(C(=O)OC(C)C)C(C)(C)C1)[C@H](CC(C)C)CO2 (stereo partly drawn) [Compound 110, Propan-2-yl 4-[(11R)-6-(2,6-dimethylphenyl)-11-(2-methylpropyl)-2,2,13-trioxo-9-oxa-2λ^6-thia-3,5,12,19-tetraazatricyclo[12.3.1.14,8]nonadeca-1(17),4(19),5,7,14(18),15-hexaen-12-yl]-2,2-dimethylpyrrolidine-1-carboxylate]",+++ (+++ is >60%),> 6.00,
"COCCN1CCC2(CC1)CC(N1C(=O)c3cccc(c3)S(=O)(=O)Nc3nc(cc(-c4c(C)cccc4C)n3)OC[C@H]1CC1(C(F)(F)F)CC1)C2 [Compound 128, (11R)-6-(2,6-Dimethylphenyl)-12-[7-(2-methoxyethyl)-7-azaspiro[3.5]nonan-2-yl]-2,2-dioxo-11-[[1-(trifluoromethyl)cyclopropyl]methyl]-9-oxa-2λ^6-thia-3,5,12,19-tetrazatricyclo[12.3.1.14,8]nonadeca-1(18),4(19),5,7,14,16-hexaen-13-one]",,,Ent. B Max Activity (%): +++ (+++ is >60%); pEC50 (read-out: Ent. B EC50): > 6.00
"Cc1cccc(C)c1-c1cc2nc(n1)NS(=O)(=O)c1cccc(c1)C(=O)N(C1CC3(CCN(CCOC(C)C)CC3)C1)[C@H](CC1(C(F)(F)F)CC1)CO2 [Compound 129, (11R)-6-(2,6-dimethylphenyl)-12-[7-(2-isopropoxyethyl)-7-azaspiro[3.5]nonan-2-yl]-2,2-dioxo-11-[[1-(trifluoromethyl)cyclopropyl]methyl]-9-oxa-2λ^6-thia-3,5,12,19-tetrazatricyclo[12.3.1.14,8]nonadeca-1(18),4(19),5,7,14,16-hexaen-13-one]",,,Ent. B Max Activity (%): +++ (+++ is >60%); pEC50 (read-out: Ent. B EC50): > 6.00
"Cc1cccc(C)c1-c1cc2nc(n1)NS(=O)(=O)c1cccc(c1)C(=O)N(C1CC3(C1)CN(C(C)C)C3)[C@H](CC1(C(F)(F)F)CC1)CO2 [Compound 132, (11R)-6-(2,6-Dimethylphenyl)-12-(2-isopropyl-2-azaspiro[3.3]heptan-6-yl)-2,2-dioxo-11-[[1-(trifluoromethyl)cyclopropyl]methyl]-9-oxa-2λ^6-thia-3,5,12,19-tetrazatricyclo[12.3.1.14,8]nonadeca-1(18),4(19),5,7,14,16-hexaen-13-one]",+++ (+++ is >60%),> 6.00,
"Cc1cccc(C)c1-c1cc2nc(n1)NS(=O)(=O)c1cccc(c1)C(=O)N(C1CC3(C1)CN(C(=O)OC(C)C)C3)[C@H](CC1(C(F)(F)F)CC1)CO2 [Compound 133, Propan-2-yl 6-[(11R)-6-(2,6-dimethylphenyl)-2,2,13-trioxo-11-{[1-(trifluoromethyl)cyclopropyl]methyl}-9-oxa-2λ^6-thia-3,5,12,19-tetraazatricyclo[12.3.1.14,8]nonadeca-1(17),4,6,8(19),14(18),15-hexaen-12-yl]-2-azaspiro[3.3]heptane-2-carboxylate]",+++ (+++ is >60%),> 6.00,
"COCCN1CCC2(CC1)CC(N1C(=O)c3cccc(c3)S(=O)(=O)Nc3nc(cc(-c4c(C)cccc4C)n3)OC[C@H]1CC(C)(C)C)C2 [Compound 138, (11R)-6-(2,6-Dimethylphenyl)-11-(2,2-dimethylpropyl)-12-[7-(2-methoxyethyl)-7-azaspiro[3.5]nonan-2-yl]-2,2-dioxo-9-oxa-2λ^6-thia-3,5,12,19-tetrazatricyclo[12.3.1.14,8]nonadeca-1(18),4(19),5,7,14,16-hexaen-13-one]",,,Ent. B Max Activity (%): +++ (+++ is >60%); pEC50 (read-out: Ent. B EC50): > 6.00
"Cc1cccc(C)c1-c1cc2nc(n1)NS(=O)(=O)c1cccc(c1)C(=O)N(C1CC3(CCN3C(=O)CO)C1)[C@H](CC(C)(C)C)CO2 (stereo partly drawn) [Compound 146, (11R)-6-(2,6-Dimethylphenyl)-11-(2,2-dimethylpropyl)-12-[1-(2-hydroxyacetyl)-1-azaspiro[3.3]heptan-6-yl]-2,2-dioxo-9-oxa-2λ^6-thia-3,5,12,19-tetrazatricyclo[12.3.1.14,8]nonadeca-1(18),4(19),5,7,14,16-hexaen-13-one]",,,Ent. B Max Activity (%) (Table 10): +++ (+++ is >60%); pEC50 [1]: > 6.00
